According to US8222278B2, “Treatment of attention-deficit/hyperactivity disorder” (Abbott Laboratories, priority 2008, dated 2012):
Like-named read-outs stand apart in the source and are kept apart here.

Tests used:
adults with ADHD [1] = experiment: Study A: patient-reported health outcomes (AAQoL, WPAI); assay type: in vivo, human; parameters: WPAI Absenteeism (employed), Mean Diff. / WPAI Impaired Work Effectiveness (employed), Mean Diff. / AAQoL Total, Mean Diff. / WPAI Overall Activity Impairment (all), Mean Diff. / WPAI Overall Work Impairment (employed), Mean Diff.: scale not given here
Method: A clinical study (Study A) was conducted to assess the safety and efficacy of ABT-894 compared to placebo in adults with ADHD and to evaluate the dose-response relationship.
Subjects in each dose group received, in random order, both ABT-894 and placebo according to a 2×2 crossover design. Each treatment period was 4 weeks separated by a 2-week washout period.
Secondary efficacy endpoints included the CAARS:Inv Inattentive and Hyperactive/Impulsive Subscale Scores, Clinical Global Impression-ADHD-Severity Scale (CGI-ADHD-S). Adult ADHD Investigator Symptom Report Scale (AISRS), including total and subscales, and the Self-rated Connors Adult ADHD Rating Scale (CAARS-Self). Health outcomes including the Adult ADHD Quality of Life Scale (AAQoL) and Work Productivity and Activity Impairment Questionnaire (WPAI) were used to evaluate the validity of these scales in this study population for use in subsequent clinical trials.

adults with ADHD [2] = conditions: human, in vivo, 4 weeks
Method: During each visit, blood pressure, heart rate, weight, medication accountability and tolerability, and adverse effects were assessed.
The safety dataset consisted of all subjects who took at least one dose of study drug. The reasons for discontinuation and the treatment-emergent adverse events were summarized by the treatment under which the discontinuation or event was reported.
Treatment-emergent adverse events were those that began or worsened following the first dose of study drug in Period 1. Adverse event monitoring was conducted at each study visit and until 30 days following discontinuation of study drug. Other routine safety assessments included vital signs, electrocardiograms, physical examinations, brief neurological examinations and laboratory tests.

adults with ADHD [3] = experiment: Study A: weight and vital signs; assay type: in vivo, human; conditions: final evaluation (LOCF)
Method: The treatment group differences in vital signs were analyzed using a Grizzle Model similar to the model used for the efficacy analyses with the exclusion of period-specific baselines.

[4] = Steady state pharmacokinetics of ABT-894 after multiple oral doses; assay type: in vivo, human; conditions: for Cave / Cmin / Cmax / AUC: multiple doses, steady state; for Tmax: QD or BID
Method: Steady state pharmacokinetic parameters of ABT-894 were determined in randomized, double-blind, placebo-controlled, parallel-design or crossover-design studies conducted with ABT-894. In these studies ABT-894 or matching placebo was administered orally either once daily (QD) or twice daily (BID) to subjects and serial blood samples were collected in order to determine ABT-894 plasma concentrations and pharmacokinetic parameters.
As used herein, Cmax refers to peak plasma concentration of a therapeutic agent, in this case ABT-894, under steady state conditions.
As used herein, Cave refers to average plasma concentration of a therapeutic agent. in this case ABT-894, under steady state conditions.
As used herein, Cmin refers to the minimum plasma concentration of a therapeutic agent, in this case ABT-894, under steady state conditions.
As used herein. Tmax refers to the time required to reach peak concentration.
As used herein, AUC12 refers to the area under the curve determined for 12 hours.
As used herein. AUC24 refers to the area under the curve determined for 24 hours.

Q: For `Clc1cc(N2C[C@@H]3CN[C@@H]3C2)cnc1Cl` [ABT-894, 3-(5,6-Dichloro-pyridin-3-yl)-1S,5S-3,6-diazabicyclo[3.2.0]heptane], which “Measures of quality of life relative to placebo” value (adults with ADHD [1]; ABT-894 2 mg QD) is on record?
A: improved measures of quality of life relative to placebo

Q: And the “WPAI Impaired Work Effectiveness (employed), Mean Diff.” value (adults with ADHD [1]; ABT-894 4 mg BID, N 22)?
A: −0.104

Q: And the “WPAI Overall Work Impairment (employed), Mean Diff.” value (adults with ADHD [1]; ABT-894 4 mg BID, N 22)?
A: −0.093

Q: And the “WPAI Overall Activity Impairment (all), Mean Diff.” value (adults with ADHD [1]; ABT-894 4 mg BID, N 43)?
A: −0.108

Q: And the “Influenza-like illness, % of subjects” value (adults with ADHD [2])?
A: (0) %

Q: And the “Influenza-like illness, number of subjects” value (adults with ADHD [2])?
A: 0 subjects

Q: And the “Diastolic BP, mean difference from placebo” value (from here on “Diastolic BP, mean difference”) (adults with ADHD [3]; ABT-894 1 mg QD)?
A: 0.28 mm Hg

Q: And the “Pulse, mean difference from placebo” value (adults with ADHD [3]; ABT-894 1 mg QD)?
A: −0.24 bpm

Q: And the “Systolic BP, mean difference from placebo” value (from here on “Systolic BP, mean difference”) (adults with ADHD [3]; ABT-894 1 mg QD)?
A: 1.36 mm Hg

Q: What about the “Weight, mean difference from placebo” value (adults with ADHD [3]; ABT-894 1 mg QD) of the same molecule?
A: 0.48 kg

Q: And the “Diastolic BP, mean difference” value (adults with ADHD [3]; ABT-894 2 mg QD)?
A: 0.62 mm Hg

Q: And the “Pulse, mean difference from placebo” value (adults with ADHD [3]; ABT-894 2 mg QD)?
A: 0.42 bpm

Q: And the “Systolic BP, mean difference” value (adults with ADHD [3]; ABT-894 2 mg QD)?
A: 1.07 mm Hg

Q: What about the “Weight, mean difference from placebo” value (adults with ADHD [3]; ABT-894 2 mg QD) of the same molecule?
A: 0.09 kg

Q: What about the “Diastolic BP, mean difference” value (adults with ADHD [3]; ABT-894 4 mg BID) of the same molecule?
A: −2.21 mm Hg

Q: And the “Pulse, mean difference from placebo” value (adults with ADHD [3]; ABT-894 4 mg BID)?
A: 0.98 bpm

Q: And the “Systolic BP, mean difference” value (adults with ADHD [3]; ABT-894 4 mg BID)?
A: −0.48 mm Hg

Q: What about the “Weight, mean difference from placebo” value (adults with ADHD [3]; ABT-894 4 mg BID) of the same molecule?
A: -0.08 kg

Q: And the “Diastolic BP, mean difference” value (adults with ADHD [3]; ABT-894 4 mg QD)?
A: 0.23 mm Hg

Q: What about the “Pulse, mean difference from placebo” value (adults with ADHD [3]; ABT-894 4 mg QD) of the same molecule?
A: 3.14 bpm

Q: And the “Systolic BP, mean difference” value (adults with ADHD [3]; ABT-894 4 mg QD)?
A: −0.08 mm Hg

Q: And the “Weight, mean difference from placebo” value (adults with ADHD [3]; ABT-894 4 mg QD)?
A: 0.04 kg

Q: And the Cave ([4]; 2 mg QD, plasma)?
A: about 2 ng/mL

Q: What about the Cmin ([4]; 2 mg QD, plasma) of the same molecule?
A: about 0.3 ng/mL

Q: What about the Cave ([4]; 4 mg BID, plasma) of the same molecule?
A: 6 to 10 ng/mL

Q: And the Cmin ([4]; 4 mg BID, plasma)?
A: 2 to 4 ng/mL

Q: And the Cmax ([4]; human, oral, 2 mg QD, plasma)?
A: ~5 ng/mL

Q: And the AUC ([4]; human, oral, 2 mg QD, plasma, read-out: AUC24)?
A: ~46 ng·h/mL

Q: And the Cmax ([4]; human, oral, 4 mg BID, plasma)?
A: 11 to 15 ng/mL

Q: What about the AUC ([4]; human, oral, 4 mg BID, plasma, read-out: AUC12) of the same molecule?
A: 72 to 114 ng·h/mL

Q: What about the Tmax ([4]; human, plasma, po, read-out: Tmax) of the same molecule?
A: 2 to 4 h

Q: And the Tmax ([4]; oral)?
A: 2 to 3 h
